From publication PMC9856672, “SGC-CAMKK2-1: A Chemical Probe for CAMKK2” (Cells, 2023)

How the values were obtained:
[1] = target: T1, ROCK1 (Homo sapiens, UniProt Q13464); test: KINOMEscan at 1 μM, ROCK1; format: binding; conditions: 1000 nM, read-out: Percent Control
T1 construct: purchased Eurofins DiscoverX KINOMEscan
From the text: (§1) Supplement cells-12-00287-s001.zip/File S2. KinomeScan data for the CAMKK2 probe and negative control.xlsx, sheet "SGC-CAMKK2-1N" | column: Percent Control

[2] = target: T2, LIMK1 (Homo sapiens, UniProt P53667); test: KINOMEscan at 1 μM, LIMK1; format: binding; conditions: 1000 nM, read-out: Percent Control
T2 construct: purchased Eurofins DiscoverX KINOMEscan
From the text: as §1

[3] = target: T3, KIT(A829P) (Homo sapiens, UniProt P10721, A829P); test: KINOMEscan at 1 μM, KIT(A829P); format: binding; conditions: 1000 nM, read-out: Percent Control
T3 construct: purchased Eurofins DiscoverX KINOMEscan
From the text: as §1

[4] = target: T4, NEK11 (Homo sapiens, UniProt Q8NG66); test: KINOMEscan at 1 μM, NEK11; format: binding; conditions: 1000 nM, read-out: Percent Control
T4 construct: purchased Eurofins DiscoverX KINOMEscan
From the text: as §1

[5] = target: T5, DMPK (Homo sapiens, UniProt Q09013); test: KINOMEscan at 1 μM, DMPK; format: binding; conditions: 1000 nM, read-out: Percent Control
T5 construct: purchased Eurofins DiscoverX KINOMEscan
T5 sequence (Q09013 whole entry): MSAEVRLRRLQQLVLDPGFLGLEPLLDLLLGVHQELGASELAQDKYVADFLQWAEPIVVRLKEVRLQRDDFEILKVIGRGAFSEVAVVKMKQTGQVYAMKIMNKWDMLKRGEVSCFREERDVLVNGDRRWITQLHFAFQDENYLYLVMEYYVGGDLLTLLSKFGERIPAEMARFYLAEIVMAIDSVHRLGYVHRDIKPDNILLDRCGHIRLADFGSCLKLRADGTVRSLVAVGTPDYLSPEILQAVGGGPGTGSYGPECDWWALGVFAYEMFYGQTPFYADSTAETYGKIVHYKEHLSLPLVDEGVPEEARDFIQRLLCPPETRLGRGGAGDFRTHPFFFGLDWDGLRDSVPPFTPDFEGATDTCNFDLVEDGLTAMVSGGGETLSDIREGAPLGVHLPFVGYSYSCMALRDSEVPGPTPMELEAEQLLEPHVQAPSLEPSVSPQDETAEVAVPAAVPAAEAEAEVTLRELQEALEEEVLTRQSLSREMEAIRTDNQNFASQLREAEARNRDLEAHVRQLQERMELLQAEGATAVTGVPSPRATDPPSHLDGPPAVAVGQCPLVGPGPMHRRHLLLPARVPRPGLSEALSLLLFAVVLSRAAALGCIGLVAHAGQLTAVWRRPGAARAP
From the text: as §1

[6] = target: T6, BMX (Homo sapiens, UniProt P51813); test: KINOMEscan at 1 μM, BMX; format: binding; conditions: 1000 nM, read-out: Percent Control
T6 construct: purchased Eurofins DiscoverX KINOMEscan
From the text: as §1

[7] = target: T7, QSK (Homo sapiens, UniProt Q9Y2K2); test: KINOMEscan at 1 μM, QSK; format: binding; conditions: 1000 nM, read-out: Percent Control
T7 construct: purchased Eurofins DiscoverX KINOMEscan
From the text: as §1

[8] = target: T8, PKAC-beta (Homo sapiens, UniProt P22694); test: KINOMEscan binding assay at 1 μM, PKAC-beta; conditions: Compound Concentration 1000 nM; read-out: Percent Control
T8 construct: purchased Eurofins DiscoverX KINOMEscan
From the text: as §1

[9] = target: T9, BRAF (Homo sapiens, UniProt P15056); test: KINOMEscan at 1 μM, BRAF; format: binding; conditions: 1000 nM, read-out: Percent Control
T9 construct: purchased Eurofins DiscoverX KINOMEscan
From the text: as §1

[10] = target: T10, BMPR2 (Homo sapiens, UniProt Q13873); test: KINOMEscan at 1 μM, BMPR2; format: binding; conditions: 1000 nM, read-out: Percent Control
T10 construct: purchased Eurofins DiscoverX KINOMEscan
T10 sequence (Q13873 27-1038): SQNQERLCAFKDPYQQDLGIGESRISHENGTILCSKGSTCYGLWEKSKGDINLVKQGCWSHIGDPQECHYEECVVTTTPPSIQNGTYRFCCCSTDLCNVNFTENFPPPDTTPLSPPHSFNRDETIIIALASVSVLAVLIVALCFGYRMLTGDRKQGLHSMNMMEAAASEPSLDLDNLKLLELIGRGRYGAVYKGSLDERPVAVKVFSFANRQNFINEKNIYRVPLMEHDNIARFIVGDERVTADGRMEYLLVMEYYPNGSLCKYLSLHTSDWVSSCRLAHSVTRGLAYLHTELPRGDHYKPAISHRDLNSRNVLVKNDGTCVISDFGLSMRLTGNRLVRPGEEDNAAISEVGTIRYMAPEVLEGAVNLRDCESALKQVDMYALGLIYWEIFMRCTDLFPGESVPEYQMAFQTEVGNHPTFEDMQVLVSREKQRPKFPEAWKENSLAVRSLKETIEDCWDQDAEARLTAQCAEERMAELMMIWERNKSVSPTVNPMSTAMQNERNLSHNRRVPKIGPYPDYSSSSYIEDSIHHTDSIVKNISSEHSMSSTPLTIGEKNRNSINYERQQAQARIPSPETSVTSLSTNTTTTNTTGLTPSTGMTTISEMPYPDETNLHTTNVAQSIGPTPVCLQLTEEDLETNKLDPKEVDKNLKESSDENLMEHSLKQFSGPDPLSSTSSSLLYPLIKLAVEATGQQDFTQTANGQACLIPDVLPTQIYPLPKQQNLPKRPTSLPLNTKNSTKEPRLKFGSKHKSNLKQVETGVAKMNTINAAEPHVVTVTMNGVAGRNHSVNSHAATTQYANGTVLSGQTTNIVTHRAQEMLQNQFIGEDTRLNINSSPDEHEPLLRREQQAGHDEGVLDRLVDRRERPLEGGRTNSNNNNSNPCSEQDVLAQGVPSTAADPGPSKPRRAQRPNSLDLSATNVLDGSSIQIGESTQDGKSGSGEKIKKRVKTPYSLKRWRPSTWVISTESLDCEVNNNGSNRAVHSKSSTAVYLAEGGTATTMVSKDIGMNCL
From the text: as §1

[11] = target: T11, FGR (Homo sapiens, UniProt P09769); test: KINOMEscan at 1 μM, FGR; format: binding; conditions: 1000 nM, read-out: Percent Control
T11 construct: purchased Eurofins DiscoverX KINOMEscan
From the text: as §1

[12] = target: T12, ROS1 (Homo sapiens, UniProt P08922); test: KINOMEscan binding assay at 1 μM, ROS1; conditions: Compound Concentration 1000 nM; read-out: Percent Control
T12 construct: purchased Eurofins DiscoverX KINOMEscan
From the text: as §1

[13] = target: T13, CIT (Homo sapiens, UniProt O14578); test: KINOMEscan at 1 μM, CIT; format: binding; conditions: 1000 nM, read-out: Percent Control
T13 construct: purchased Eurofins DiscoverX KINOMEscan
From the text: as §1

[14] = target: T14, CHEK1 (Homo sapiens, UniProt O14757); test: KINOMEscan 1 μM, CHEK1; format: binding; conditions: 1000 nM; Entrez CHEK1; read-out: Percent Control
T14 construct: purchased Eurofins DiscoverX KINOMEscan
From the text: (§2) Supplement cells-12-00287-s001.zip/File S2. KinomeScan data for the CAMKK2 probe and negative control.xlsx, sheet "SGC-CAMKK2-1" | column: Percent Control

[15] = target: T15, IKK-epsilon (Homo sapiens, UniProt Q14164); test: KINOMEscan 1 μM, IKK-epsilon; format: binding; conditions: 1000 nM; Entrez IKBKE; read-out: Percent Control
T15 construct: purchased Eurofins DiscoverX KINOMEscan
T15 sequence (Q14164 whole entry): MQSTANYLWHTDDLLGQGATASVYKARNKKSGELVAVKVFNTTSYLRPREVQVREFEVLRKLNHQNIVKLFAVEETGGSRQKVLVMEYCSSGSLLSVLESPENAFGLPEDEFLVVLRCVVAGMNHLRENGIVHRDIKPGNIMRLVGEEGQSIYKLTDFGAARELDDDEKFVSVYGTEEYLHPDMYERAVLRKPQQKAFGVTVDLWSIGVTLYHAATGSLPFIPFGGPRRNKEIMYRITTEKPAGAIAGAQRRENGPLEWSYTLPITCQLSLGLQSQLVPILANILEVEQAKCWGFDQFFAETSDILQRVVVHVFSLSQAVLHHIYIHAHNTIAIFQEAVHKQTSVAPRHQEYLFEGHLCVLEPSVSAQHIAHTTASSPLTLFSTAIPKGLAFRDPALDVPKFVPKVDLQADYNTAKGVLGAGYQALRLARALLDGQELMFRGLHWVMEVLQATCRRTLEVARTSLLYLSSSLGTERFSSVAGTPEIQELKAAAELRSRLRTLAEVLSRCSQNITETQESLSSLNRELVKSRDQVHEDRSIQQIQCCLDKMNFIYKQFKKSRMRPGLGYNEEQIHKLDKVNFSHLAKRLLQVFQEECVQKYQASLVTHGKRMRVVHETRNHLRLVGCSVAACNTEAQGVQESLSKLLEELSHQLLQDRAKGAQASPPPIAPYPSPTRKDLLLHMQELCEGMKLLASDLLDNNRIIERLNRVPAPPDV
From the text: as §2

[16] = target: T16, PRKCQ (Homo sapiens, UniProt Q04759); test: DiscoverX KINOMEscan binding assay at 1 μM, PRKCQ; conditions: Compound Concentration 1000 nM, read-out: Percent Control
T16 construct: purchased Eurofins DiscoverX KINOMEscan
T16 sequence (Q04759 whole entry): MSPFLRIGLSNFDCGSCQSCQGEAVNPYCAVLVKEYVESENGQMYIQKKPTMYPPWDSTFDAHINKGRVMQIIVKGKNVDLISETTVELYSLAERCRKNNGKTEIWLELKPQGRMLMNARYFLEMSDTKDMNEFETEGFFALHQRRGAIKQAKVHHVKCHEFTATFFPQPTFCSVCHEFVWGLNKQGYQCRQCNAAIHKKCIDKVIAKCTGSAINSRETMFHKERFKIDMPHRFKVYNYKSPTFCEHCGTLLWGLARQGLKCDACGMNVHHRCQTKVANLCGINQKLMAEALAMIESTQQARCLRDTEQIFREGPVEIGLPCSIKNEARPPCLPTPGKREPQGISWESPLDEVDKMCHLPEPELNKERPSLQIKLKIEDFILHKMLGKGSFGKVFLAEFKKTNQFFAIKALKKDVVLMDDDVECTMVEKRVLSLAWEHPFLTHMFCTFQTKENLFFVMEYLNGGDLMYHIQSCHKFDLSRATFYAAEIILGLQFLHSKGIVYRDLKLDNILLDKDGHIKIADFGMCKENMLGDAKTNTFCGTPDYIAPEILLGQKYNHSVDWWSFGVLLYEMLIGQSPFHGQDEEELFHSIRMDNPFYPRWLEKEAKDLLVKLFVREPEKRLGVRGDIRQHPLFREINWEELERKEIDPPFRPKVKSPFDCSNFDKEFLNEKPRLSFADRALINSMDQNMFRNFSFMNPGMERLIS
From the text: as §2

[17] = target: T17, GSK3B (Homo sapiens, UniProt P49841); test: KINOMEscan 1 μM, GSK3B; format: binding; conditions: 1000 nM; Entrez GSK3B; read-out: Percent Control
T17 construct: purchased Eurofins DiscoverX KINOMEscan
From the text: as §2

[18] = target: T18, ABL1(F317I)-phosphorylated (Homo sapiens, UniProt P00519, F317I); test: KINOMEscan 1 μM, ABL1(F317I)-phosphorylated; format: binding; conditions: 1000 nM; Entrez ABL1; read-out: Percent Control
T18 construct: purchased Eurofins DiscoverX KINOMEscan
T18 sequence (P00519 whole entry F317I): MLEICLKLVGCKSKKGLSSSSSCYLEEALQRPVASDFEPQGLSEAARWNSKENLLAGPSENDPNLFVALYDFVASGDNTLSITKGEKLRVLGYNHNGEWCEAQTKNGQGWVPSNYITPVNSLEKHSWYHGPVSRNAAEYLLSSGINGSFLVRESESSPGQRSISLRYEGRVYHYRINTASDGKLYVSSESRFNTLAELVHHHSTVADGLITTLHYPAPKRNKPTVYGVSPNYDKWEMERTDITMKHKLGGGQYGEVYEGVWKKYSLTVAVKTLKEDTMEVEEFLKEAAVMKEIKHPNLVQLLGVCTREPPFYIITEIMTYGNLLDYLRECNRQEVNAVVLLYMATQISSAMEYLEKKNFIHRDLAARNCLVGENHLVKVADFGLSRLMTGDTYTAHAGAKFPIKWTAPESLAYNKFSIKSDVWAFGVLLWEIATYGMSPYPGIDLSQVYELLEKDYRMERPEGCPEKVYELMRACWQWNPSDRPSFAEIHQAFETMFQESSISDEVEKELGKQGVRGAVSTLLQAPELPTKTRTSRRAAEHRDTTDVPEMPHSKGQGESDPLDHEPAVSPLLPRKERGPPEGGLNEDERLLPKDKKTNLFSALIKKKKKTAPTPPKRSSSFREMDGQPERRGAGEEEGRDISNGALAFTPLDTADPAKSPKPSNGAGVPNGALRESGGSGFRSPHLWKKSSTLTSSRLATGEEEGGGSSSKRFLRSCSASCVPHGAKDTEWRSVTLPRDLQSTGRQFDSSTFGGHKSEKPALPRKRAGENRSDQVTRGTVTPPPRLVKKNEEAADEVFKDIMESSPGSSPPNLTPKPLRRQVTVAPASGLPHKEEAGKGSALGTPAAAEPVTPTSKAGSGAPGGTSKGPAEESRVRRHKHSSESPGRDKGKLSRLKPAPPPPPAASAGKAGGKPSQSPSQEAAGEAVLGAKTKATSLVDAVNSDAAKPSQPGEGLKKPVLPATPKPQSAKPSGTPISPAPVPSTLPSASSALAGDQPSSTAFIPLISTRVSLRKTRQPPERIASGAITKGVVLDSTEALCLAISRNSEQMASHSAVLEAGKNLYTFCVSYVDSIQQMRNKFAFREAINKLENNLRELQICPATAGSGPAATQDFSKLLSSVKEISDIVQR
From the text: as §2

[19] = target: T19, PLK1 (Homo sapiens, UniProt P53350); test: DiscoverX KINOMEscan binding assay at 1 μM, PLK1; conditions: Compound Concentration 1000 nM, read-out: Percent Control
T19 construct: purchased Eurofins DiscoverX KINOMEscan
From the text: as §2

[20] = target: T5, DMPK; test: KINOMEscan 1 μM, DMPK; format: binding; conditions: 1000 nM; Entrez DMPK; read-out: Percent Control
From the text: as §2

[21] = target: T20, SBK1 (Homo sapiens, UniProt Q52WX2); test: DiscoverX KINOMEscan binding assay at 1 μM, SBK1; conditions: Compound Concentration 1000 nM, read-out: Percent Control
T20 construct: purchased Eurofins DiscoverX KINOMEscan
T20 sequence (Q52WX2 whole entry): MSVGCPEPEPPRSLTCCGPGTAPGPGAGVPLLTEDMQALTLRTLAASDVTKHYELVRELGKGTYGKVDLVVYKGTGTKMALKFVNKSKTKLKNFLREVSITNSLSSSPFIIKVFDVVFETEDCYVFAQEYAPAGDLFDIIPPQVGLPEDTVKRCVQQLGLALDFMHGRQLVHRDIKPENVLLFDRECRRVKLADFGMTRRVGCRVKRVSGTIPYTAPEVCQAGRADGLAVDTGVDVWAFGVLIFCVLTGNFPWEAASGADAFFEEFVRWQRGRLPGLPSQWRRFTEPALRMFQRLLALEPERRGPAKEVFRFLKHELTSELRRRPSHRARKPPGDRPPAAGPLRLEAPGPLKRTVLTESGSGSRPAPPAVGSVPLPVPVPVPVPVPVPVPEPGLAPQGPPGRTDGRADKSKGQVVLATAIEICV
From the text: as §2

[22] = target: T21, ALK(L1196M) (Homo sapiens, UniProt Q9UM73, L1196M); test: KINOMEscan 1 μM, ALK(L1196M); format: binding; conditions: 1000 nM; Entrez ALK; read-out: Percent Control
T21 construct: purchased Eurofins DiscoverX KINOMEscan
From the text: as §2

[23] = target: T22, EPHA7 (Homo sapiens, UniProt Q15375); test: KINOMEscan 1 μM, EPHA7; format: binding; conditions: 1000 nM; Entrez EPHA7; read-out: Percent Control
T22 construct: purchased Eurofins DiscoverX KINOMEscan
From the text: as §2

[24] = target: T23, PCTK1 (Homo sapiens, UniProt Q00536); test: DiscoverX KINOMEscan binding assay at 1 μM, PCTK1; conditions: PCTK1 (CDK16); Compound Concentration 1000 nM; read-out: Percent Control
T23 construct: purchased Eurofins DiscoverX KINOMEscan
From the text: as §2

[25] = target: T24, LOK (Homo sapiens, UniProt O94804); test: KINOMEscan 1 μM, LOK; format: binding; conditions: 1000 nM; Entrez STK10; read-out: Percent Control
T24 construct: purchased Eurofins DiscoverX KINOMEscan
From the text: as §2

[26] = target: T25, PLK3 (Homo sapiens, UniProt Q9H4B4); test: DiscoverX KINOMEscan binding assay at 1 μM, PLK3; conditions: Compound Concentration 1000 nM, read-out: Percent Control
T25 construct: purchased Eurofins DiscoverX KINOMEscan
From the text: as §2

[27] = target: T26, TNNI3K (Homo sapiens, UniProt Q59H18); test: DiscoverX KINOMEscan binding assay at 1 μM, TNNI3K; conditions: Compound Concentration 1000 nM, read-out: Percent Control
T26 construct: purchased Eurofins DiscoverX KINOMEscan
From the text: as §2

[28] = target: T27, PCTK3 (Homo sapiens, UniProt Q07002); test: KINOMEscan 1 μM, PCTK3; format: binding; conditions: 1000 nM; Entrez CDK18; read-out: Percent Control
T27 construct: purchased Eurofins DiscoverX KINOMEscan
From the text: as §2

[29] = target: T28, ABL1(F317L)-phosphorylated (Homo sapiens, UniProt P00519, F317L); test: KINOMEscan 1 μM, ABL1(F317L)-phosphorylated; format: binding; conditions: 1000 nM; Entrez ABL1; read-out: Percent Control
T28 construct: purchased Eurofins DiscoverX KINOMEscan
T28 sequence (P00519 whole entry F317L): as the sequence (P00519 whole entry F317I) above, with I317L counted along it
From the text: as §2

[30] = target: T29, TSSK1B (Homo sapiens, UniProt Q9BXA7); test: DiscoverX KINOMEscan binding assay at 1 μM, TSSK1B; conditions: Compound Concentration 1000 nM, read-out: Percent Control
T29 construct: purchased Eurofins DiscoverX KINOMEscan
T29 sequence (Q9BXA7 whole entry): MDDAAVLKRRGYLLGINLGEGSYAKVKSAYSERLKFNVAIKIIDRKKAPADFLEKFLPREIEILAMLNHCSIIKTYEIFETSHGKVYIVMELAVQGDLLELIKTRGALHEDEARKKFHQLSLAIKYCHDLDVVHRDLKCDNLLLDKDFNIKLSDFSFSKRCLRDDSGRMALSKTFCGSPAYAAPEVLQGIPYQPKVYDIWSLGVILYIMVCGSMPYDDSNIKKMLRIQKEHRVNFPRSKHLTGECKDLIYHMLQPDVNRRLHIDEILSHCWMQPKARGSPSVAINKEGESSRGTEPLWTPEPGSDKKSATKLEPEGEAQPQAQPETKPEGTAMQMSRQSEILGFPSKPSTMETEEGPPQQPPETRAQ
From the text: as §2

[31] = target: T30, EPHB4 (Homo sapiens, UniProt P54760); test: KINOMEscan 1 μM, EPHB4; format: binding; conditions: 1000 nM; Entrez EPHB4; read-out: Percent Control
T30 construct: purchased Eurofins DiscoverX KINOMEscan
From the text: as §2

[32] = target: T31, EPHA4 (Homo sapiens, UniProt P54764); test: KINOMEscan 1 μM, EPHA4; format: binding; conditions: 1000 nM; Entrez EPHA4; read-out: Percent Control
T31 construct: purchased Eurofins DiscoverX KINOMEscan
From the text: as §2

[33] = target: T32, PAK1 (Homo sapiens, UniProt Q13153); test: KINOMEscan 1 μM, PAK1; format: binding; conditions: 1000 nM; Entrez PAK1; read-out: Percent Control
T32 construct: purchased Eurofins DiscoverX KINOMEscan
From the text: as §2

[34] = target: T33, DAPK3 (Homo sapiens, UniProt O43293); test: KINOMEscan 1 μM, DAPK3; format: binding; conditions: 1000 nM; Entrez DAPK3; read-out: Percent Control
T33 construct: purchased Eurofins DiscoverX KINOMEscan
From the text: as §2

[35] = target: T34, PRKD2 (Homo sapiens, UniProt Q9BZL6); test: DiscoverX KINOMEscan binding assay at 1 μM, PRKD2; conditions: Compound Concentration 1000 nM, read-out: Percent Control
T34 construct: purchased Eurofins DiscoverX KINOMEscan
From the text: as §2

## O=C(O)c1ccc(-c2coc3ncc(-c4ccccc4)cc23)cc1Cl [SGC-CAMKK2-1N (UNC-YL-83)]
[1]
  remaining binding at 1 µM: 79%
[2]
  remaining binding at 1 µM: 88%
[3]
  remaining binding at 1 µM: 86%
[4]
  remaining binding at 1 µM: 62%
[5]
  remaining binding at 1 µM: 72%
[6]
  remaining binding at 1 µM: 77%
[7]
  remaining binding at 1 µM: 46%
[8]
  remaining binding at 1 µM: 100%
[9]
  remaining binding at 1 µM: 84%
[10]
  remaining binding at 1 µM: 71%
[11]
  remaining binding at 1 µM: 54%
[12]
  remaining binding at 1 µM: 100%
[13]
  remaining binding at 1 µM: 87%

## Cc1cccc(-c2cnc3occ(-c4ccc(C(=O)O)c(C5CCCC5)c4)c3c2)c1 [SGC-CAMKK2-1 (YL-36)]
[14]
  remaining binding at 1 µM: 93%
[15]
  remaining binding at 1 µM: 100%
[16]
  remaining binding at 1 µM: 100%
[17]
  remaining binding at 1 µM: 100%
[18]
  remaining binding at 1 µM: 100%
[19]
  remaining binding at 1 µM: 100%
[20]
  remaining binding at 1 µM: 92%
[21]
  remaining binding at 1 µM: 100%
[22]
  remaining binding at 1 µM: 96%
[23]
  remaining binding at 1 µM: 100%
[24]
  remaining binding at 1 µM: 100%
[25]
  remaining binding at 1 µM: 100%
[26]
  remaining binding at 1 µM: 100%
[27]
  remaining binding at 1 µM: 100%
[28]
  remaining binding at 1 µM: 99%
[29]
  remaining binding at 1 µM: 100%
[30]
  remaining binding at 1 µM: 100%
[31]
  remaining binding at 1 µM: 98%
[32]
  remaining binding at 1 µM: 90%
[33]
  remaining binding at 1 µM: 82%
[34]
  remaining binding at 1 µM: 100%
[35]
  remaining binding at 1 µM: 100%
